{
  "source": "PubChem BioAssay AID330",
  "about": "(DTP/NCI, 2004)",
  "system": "P388 leukemia ip, CD2F1 mice, survival T/C",
  "assay": "NCI In Vivo Anticancer Drug Screen. Data for tumor model P388 Leukemia (intraperitoneal) in CD2F1 (CDF1) mice",
  "details": "endpoint: median survival time, higher = longer survival",
  "outline": "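Mice carrying the transplanted tumor received test compound or vehicle. Survival was recorded in each group, and the value is the treated-group measurement divided by that of the vehicle-treated control group.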",
  "key": {"[1]": {"details": "dose: 60.0 mg/kg/injection, schedule: Q01DX005 (ip), vehicle: saline with Tween-80"}, "[2]": {"details": "dose: 120.0 mg/kg/injection, schedule: Q01DX005 (ip), vehicle: saline with Tween-80"}, "[3]": {"details": "dose: 240.0 mg/kg/injection, schedule: Q01DX005 (ip), vehicle: saline with Tween-80"}, "[4]": {"details": "dose: 12.5 mg/kg/injection, schedule: Q04DX003 (ip), vehicle: saline"}, "[5]": {"details": "dose: 25.0 mg/kg/injection, schedule: Q04DX003 (ip), vehicle: saline"}, "[6]": {"details": "dose: 50.0 mg/kg/injection, schedule: Q01DX005 (ip), vehicle: saline with Tween-80"}, "[7]": {"details": "dose: 100.0 mg/kg/injection, schedule: Q01DX005 (ip), vehicle: saline with Tween-80"}, "[8]": {"details": "dose: 200.0 mg/kg/injection, schedule: Q01DX005 (ip), vehicle: saline with Tween-80"}, "[9]": {"details": "dose: 50.0 mg/kg/injection, schedule: Q01DX009 (ip), vehicle: saline with Tween-80"}, "[10]": {"details": "dose: 100.0 mg/kg/injection, schedule: Q01DX009 (ip), vehicle: saline with Tween-80"}, "[11]": {"details": "dose: 200.0 mg/kg/injection, schedule: Q01DX009 (ip), vehicle: saline with Tween-80"}, "[12]": {"details": "dose: 50.0 mg/kg/injection, schedule: Q01DX009 (ip), vehicle: saline"}},
  "note": "Values joined by “and” are separate entries in the source; they are usually repeats but may differ in a detail not shown here. Identical values can stand only once. Inconclusive results and toxic doses are left out.",
  "data": [
    {"compound": "CC(=O)CCC1C(=O)N(C)C(=O)c2ccccc21", "note": "(centres undefined)", "values": [
      {"measurement": "T/C", "setting": "[1]", "result": "98 % of control"},
      {"measurement": "T/C", "setting": "[2]", "result": "99 % of control"},
      {"measurement": "T/C", "setting": "[3]", "result": "91 % of control"}
    ]},
    {"compound": "[Cu+2].[NH-]CC(=O)NC(Cc1ccccc1)C(=O)O.[NH-]CC(=O)NC(Cc1ccccc1)C(=O)O", "note": "(centres undefined)", "values": [
      {"measurement": "T/C", "setting": "[4]", "result": "93 % of control"},
      {"measurement": "T/C", "setting": "[5]", "result": "90 % of control"},
      {"measurement": "T/C", "setting": "dose: 50.0 mg/kg/injection, schedule: Q04DX003 (ip), vehicle: saline", "result": "100 % of control"}
    ]},
    {"compound": "COc1ccc(Cc2ccc(OC)c(OC)c2)cc1OC", "values": [
      {"measurement": "T/C", "setting": "dose: 25.0 mg/kg/injection, schedule: Q04DX003 (ip), vehicle: saline with Tween-80", "result": "99 % of control"},
      {"measurement": "T/C", "setting": "dose: 50.0 mg/kg/injection, schedule: Q04DX003 (ip), vehicle: saline with Tween-80", "result": "99 % of control"},
      {"measurement": "T/C", "setting": "dose: 100.0 mg/kg/injection, schedule: Q04DX003 (ip), vehicle: saline with Tween-80", "result": "113 % of control"},
      {"measurement": "T/C", "setting": "dose: 200.0 mg/kg/injection, schedule: Q04DX003 (ip), vehicle: saline with Tween-80", "result": "109 % of control"},
      {"measurement": "T/C", "setting": "dose: 400.0 mg/kg/injection, schedule: Q04DX003 (ip), vehicle: saline with Tween-80", "result": "120 % of control"}
    ]},
    {"compound": "CCS/C(C#N)=C(/C)c1ccccc1", "values": [
      {"measurement": "T/C", "setting": "[6]", "result": "101 % of control"},
      {"measurement": "T/C", "setting": "[7]", "result": "106 % of control"},
      {"measurement": "T/C", "setting": "[8]", "result": "108 % of control"}
    ]},
    {"compound": "Cc1cccc(/C=C/c2csnn2)n1", "values": [
      {"measurement": "T/C", "setting": "[1]", "result": "105 % of control"},
      {"measurement": "T/C", "setting": "[2]", "result": "104 % of control"},
      {"measurement": "T/C", "setting": "[3]", "result": "96 % of control"}
    ]},
    {"compound": "OC1c2cc(Cl)cc(Cl)c2OC2(N3CCCC3)CCCCC12", "note": "(centres undefined)", "values": [
      {"measurement": "T/C", "setting": "[9]", "result": "100 % of control"},
      {"measurement": "T/C", "setting": "[10]", "result": "96 % of control"},
      {"measurement": "T/C", "setting": "[11]", "result": "102 % of control"}
    ]},
    {"compound": "CC1CN1P(=O)(N1CCCCCC1)N1CC1C", "note": "(centres undefined)", "values": [
      {"measurement": "T/C", "setting": "[4]", "result": "104 % of control"},
      {"measurement": "T/C", "setting": "dose: 22.0 mg/kg/injection, schedule: Q01DX009 (ip), vehicle: saline", "result": "122 % of control"},
      {"measurement": "T/C", "setting": "[5]", "result": "100 % of control"},
      {"measurement": "T/C", "setting": "dose: 33.0 mg/kg/injection, schedule: Q01DX009 (ip), vehicle: saline", "result": "155 % of control"},
      {"measurement": "T/C", "setting": "[12]", "result": "154 % of control and 166 % of control"},
      {"measurement": "T/C", "setting": "dose: 75.0 mg/kg/injection, schedule: Q01DX009 (ip), vehicle: saline", "result": "111 % of control"},
      {"measurement": "T/C", "setting": "dose: 100.0 mg/kg/injection, schedule: Q04DX003 (ip), vehicle: saline", "result": "158 % of control"}
    ]},
    {"compound": "O=C(O)C1[N-]CCNC1C(=O)O.[O]=[V][OH]", "note": "(centres undefined)", "values": [
      {"measurement": "T/C", "setting": "[12]", "result": "91 % of control"}
    ]},
    {"compound": "Cc1ccc(C2=C3CCCCC3c3cc(C)ccc32)cc1", "note": "(centres undefined)", "values": [
      {"measurement": "T/C", "setting": "dose: 25.0 mg/kg/injection, schedule: Q01DX005 (ip), vehicle: Klucel (hydroxypropylcellulose) (HPC)", "result": "91 % of control"},
      {"measurement": "T/C", "setting": "dose: 50.0 mg/kg/injection, schedule: Q01DX005 (ip), vehicle: Klucel (hydroxypropylcellulose) (HPC)", "result": "97 % of control"},
      {"measurement": "T/C", "setting": "dose: 100.0 mg/kg/injection, schedule: Q01DX005 (ip), vehicle: Klucel (hydroxypropylcellulose) (HPC)", "result": "90 % of control"},
      {"measurement": "T/C", "setting": "dose: 200.0 mg/kg/injection, schedule: Q01DX005 (ip), vehicle: Klucel (hydroxypropylcellulose) (HPC)", "result": "90 % of control"}
    ]},
    {"compound": "CC(C)N(CCNc1cccnc1[N+](=O)[O-])C(C)C", "values": [
      {"measurement": "T/C", "setting": "[12]", "result": "115 % of control"},
      {"measurement": "T/C", "setting": "dose: 100.0 mg/kg/injection, schedule: Q01DX009 (ip), vehicle: saline", "result": "108 % of control"},
      {"measurement": "T/C", "setting": "dose: 200.0 mg/kg/injection, schedule: Q01DX009 (ip), vehicle: saline", "result": "117 % of control"}
    ]},
    {"compound": "O=C(NC(=O)c1cccc2ccccc12)NC(=S)c1ccccc1", "values": [
      {"measurement": "T/C", "setting": "dose: 100.0 mg/kg/injection, schedule: Q01DX001 (ip), vehicle: saline", "result": "92 % of control"},
      {"measurement": "T/C", "setting": "dose: 200.0 mg/kg/injection, schedule: Q01DX001 (ip), vehicle: saline", "result": "88 % of control"},
      {"measurement": "T/C", "setting": "dose: 400.0 mg/kg/injection, schedule: Q01DX001 (ip), vehicle: saline", "result": "86 % of control"}
    ]},
    {"compound": "COC(=O)C1CC=CCC1C(=O)O", "note": "(centres undefined)", "values": [
      {"measurement": "T/C", "setting": "[9]", "result": "93 % of control"},
      {"measurement": "T/C", "setting": "[10]", "result": "95 % of control"},
      {"measurement": "T/C", "setting": "[11]", "result": "99 % of control"}
    ]},
    {"compound": "ClC(Cl)Oc1ccccc1", "values": [
      {"measurement": "T/C", "setting": "dose: 10.0 mg/kg/injection, schedule: Q01DX009 (ip), vehicle: saline with Tween-80", "result": "97 % of control"},
      {"measurement": "T/C", "setting": "dose: 20.0 mg/kg/injection, schedule: Q01DX009 (ip), vehicle: saline with Tween-80", "result": "106 % of control"},
      {"measurement": "T/C", "setting": "dose: 40.0 mg/kg/injection, schedule: Q01DX009 (ip), vehicle: saline with Tween-80", "result": "103 % of control"}
    ]},
    {"compound": "c1ccc(-c2csc(-c3nc(-c4ccccc4)cs3)n2)cc1", "values": [
      {"measurement": "T/C", "setting": "dose: 25.0 mg/kg/injection, schedule: Q01DX009 (ip), vehicle: Klucel (hydroxypropylcellulose) (HPC)", "result": "117 % of control"},
      {"measurement": "T/C", "setting": "dose: 50.0 mg/kg/injection, schedule: Q01DX009 (ip), vehicle: Klucel (hydroxypropylcellulose) (HPC)", "result": "113 % of control"},
      {"measurement": "T/C", "setting": "[1]", "result": "99 % of control"},
      {"measurement": "T/C", "setting": "dose: 100.0 mg/kg/injection, schedule: Q01DX009 (ip), vehicle: Klucel (hydroxypropylcellulose) (HPC)", "result": "118 % of control"},
      {"measurement": "T/C", "setting": "[2]", "result": "96 % of control"},
      {"measurement": "T/C", "setting": "dose: 200.0 mg/kg/injection, schedule: Q01DX009 (ip), vehicle: Klucel (hydroxypropylcellulose) (HPC)", "result": "110 % of control"},
      {"measurement": "T/C", "setting": "[3]", "result": "96 % of control"}
    ]},
    {"compound": "O=C(N/N=C/c1ccccc1O)c1ccccc1O", "values": [
      {"measurement": "T/C", "setting": "[6]", "result": "100 % of control"},
      {"measurement": "T/C", "setting": "[7]", "result": "96 % of control"},
      {"measurement": "T/C", "setting": "[8]", "result": "99 % of control"}
    ]}
  ]
}
